The experiment deals with soybean leaf discs (ROS burst). Description: Luminol-based ROS burst assay in soybean leaf discs. It is filed as cell-based, soybean (Glycine max). To be noted: 50 mg/L, leaf discs of soybean Williams, dH2O negative control. As for the experimental part: To measure the oxidation burst, leaf discs (Ø 0.5 cm) collected from 2-week-old soybean (cultivar Williams) were floated overnight in 200 μL sterile H2O in a 96-well plate. The H2O was replaced with 200 μL reaction buffer containing luminol/peroxidase ([…] luminol, 10 mg/mL peroxidase) and chitooligosaccharides treatments (50 mg/L). flg22 was used as a positive control. The luminescence was measured using a GLOMAX96 microplate luminometer (Promega, Madison, WI, USA). The experiments for MAPK activation were carried out as described previously ([[…] et al., 2014]). The MAPK activation was determined by immunoblots with anti-phospho-p44/42 MAPK antibody (#4370; Cell Signaling, Boston, MA, USA).

As for `CC(=O)N[C@@H]1[C@@H](O)[C@H](O[C@@H]2O[C@H](CO)[C@@H](O[C@@H]3O[C@H](CO)[C@@H](O[C@@H]4O[C@H](CO)[C@@H](O[C@@H]5O[C@H](CO)[C@@H](O)[C@H](O)[C@H]5NC(C)=O)[C@H](O)[C@H]4NC(C)=O)[C@H](O)[C@H]3NC(C)=O)[C@H](O)[C@H]2NC(C)=O)[C@@H](CO)O[C@H]1O` [Chitin oligosaccharide (dp5), chitin oligosaccharide], the ROS burst entry is “stronger ROS burst than that of CTOS (dp4)”.

These data come from paper PMC12782889, “A GmNRF5a–GmCERK1–GmCAK1 module mediates chitin/chitosan‐triggered immune response in soybean” (Journal of Integrative Plant Biology, 2025).
